Results reported in article PMC2649376 (Molecular membrane biology, 2006).
Substitutions are numbered along the chain they refer to.

Assays:
[1] = target: F130N mutant 5-HT3 receptor; details: F130N mutant receptor activated with acetylcholine; ref Steward et al. 2000; cited from earlier work
[2] = target: T1, N128E mutant 5-HT3 receptor (Mus musculus, UniProt P23979, N128E); assay: FlexStation membrane potential dye functional assay; assay type: cell-based
T1 sequence (P23979 24-483 isoform P23979-2 N128E limits assumed): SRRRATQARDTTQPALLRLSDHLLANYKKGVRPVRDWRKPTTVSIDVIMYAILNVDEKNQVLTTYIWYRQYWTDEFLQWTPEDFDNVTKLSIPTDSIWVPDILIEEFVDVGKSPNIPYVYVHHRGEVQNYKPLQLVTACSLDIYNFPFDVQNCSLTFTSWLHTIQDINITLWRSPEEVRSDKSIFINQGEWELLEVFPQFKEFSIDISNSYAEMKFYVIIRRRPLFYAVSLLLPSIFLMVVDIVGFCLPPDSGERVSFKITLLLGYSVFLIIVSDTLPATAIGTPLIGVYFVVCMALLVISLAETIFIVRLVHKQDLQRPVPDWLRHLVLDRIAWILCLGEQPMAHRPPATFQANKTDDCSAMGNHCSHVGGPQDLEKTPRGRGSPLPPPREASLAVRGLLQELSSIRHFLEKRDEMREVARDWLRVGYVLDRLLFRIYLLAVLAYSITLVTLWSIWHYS

[3] = target: T2, N128V mutant 5-HT3 receptor (Mus musculus, UniProt P23979, N128V); assay: as above; assay type: cell-based
T2 sequence (P23979 24-483 isoform P23979-2 N128V limits assumed): T1 sequence (P23979 24-483 isoform P23979-2 N128E limits assumed) with E105V

[4] = target: T3, F130A mutant 5-HT3 receptor (Mus musculus, UniProt P23979, F130A); assay: as above; assay type: cell-based
T3 sequence (P23979 24-483 isoform P23979-2 F130A limits assumed): T1 sequence (P23979 24-483 isoform P23979-2 N128E limits assumed) with E105N, F107A

[5] = target: T4, F130W mutant 5-HT3 receptor (Mus musculus, UniProt P23979, F130W); assay: as above; assay type: cell-based
T4 sequence (P23979 24-483 isoform P23979-2 F130W limits assumed): T1 sequence (P23979 24-483 isoform P23979-2 N128E limits assumed) with E105N, F107W

[6] = target: T5, F130Y mutant 5-HT3 receptor (Mus musculus, UniProt P23979, F130Y); assay: as above; assay type: cell-based; details: HEK 293 cells
T5 sequence (P23979 24-483 isoform P23979-2 F130Y limits assumed): T1 sequence (P23979 24-483 isoform P23979-2 N128E limits assumed) with E105N, F107Y

[7] = target: T6, N128D mutant 5-HT3 receptor (Mus musculus, UniProt P23979, N128D); details: HEK 293 cells
T6 sequence (P23979 24-483 isoform P23979-2 N128D limits assumed): T1 sequence (P23979 24-483 isoform P23979-2 N128E limits assumed) with E105D

[8] = target: T7, N128L mutant 5-HT3 receptor (Mus musculus, UniProt P23979, N128L); details: HEK 293 cells
T7 sequence (P23979 24-483 isoform P23979-2 N128L limits assumed): T1 sequence (P23979 24-483 isoform P23979-2 N128E limits assumed) with E105L

[9] = target: T8, N128Q mutant 5-HT3 receptor (Mus musculus, UniProt P23979, N128Q); details: HEK 293 cells
T8 sequence (P23979 24-483 isoform P23979-2 N128Q limits assumed): T1 sequence (P23979 24-483 isoform P23979-2 N128E limits assumed) with E105Q

[10] = target: T9, N128R mutant 5-HT3 receptor (Mus musculus, UniProt P23979, N128R)
T9 sequence (P23979 24-483 isoform P23979-2 N128R limits assumed): T1 sequence (P23979 24-483 isoform P23979-2 N128E limits assumed) with E105R

[11] = target: T5, F130Y mutant 5-HT3 receptor; details: whole cell electrophysiology, ref Steward et al. 2000; cited from earlier work

| SMILES | EC50 [1] | change in EC50 versus wild type [2] | Hill Coefficient ([2]; HEK 293 cells) | change in EC50 versus wild type [3] | Hill Coefficient ([3]; HEK 293 cells) | change in EC50 versus wild type [4] | Hill Coefficient ([4]; HEK 293 cells) | change in EC50 versus wild type [5] | Hill Coefficient ([5]; HEK 293 cells) | Hill Coefficient [6] | Hill Coefficient [7] | Hill Coefficient [8] | Hill Coefficient [9] | factor of increase in EC50 versus wild type [10] | increase in EC50 versus wild type reported previously [11] |
| --- | --- | --- | --- | --- | --- | --- | --- | --- | --- | --- | --- | --- | --- | --- | --- |
| CC(=O)OCC[N+](C)(C)C [acetylcholine] | 256 µM | – | – | – | – | – | – | – | – | – | – | – | – | – | – |
| NCCc1c[nH]c2ccc(O)cc12 [5-HT, 5-hydroxytryptamine] | – | did not significantly affect the EC50 | 2.369±0.12 | four-fold decrease in EC50 | 1.809±0.34 | four-fold decrease in EC50 | 2.959±0.39 | four-fold decrease in EC50 | 2.159±0.35 | 2.609±0.39 | 2.169±0.68 | 2.519±0.15 | 1.929±0.08 | ~1500 | 8 fold |
